Reference: US20250161319A1, “USE OF HPK1 INHIBITOR IN TREATMENT OF INTERFERON-RELATED DISEASES” (priority 2022, published 2025)

Columns and labels:
[1] = target: T1, GCK (Homo sapiens (Human), UniProt Q12851); assay: In vitro enzyme activity, ADP-Glo method (Example 3); assay type: biochemical; conditions: recombinant protein, read-out: GCK inhibiting activity level (IC50)
Description: (§1) ADP-Glo™ Kinase Assay is a luminescent ADP assay that provides a versatile, homogeneous, high-throughput screening method to measure kinase activity by quantifying the amount of ADP produced during the kinase reaction. The assay was performed in two steps; first, after the kinase reaction, an equal volume of ADP-Glo™ Reagent was added to quench the kinase reaction and consume the remaining ATP. Second, the Kinase Assay Reagent was added to concurrently convert ADP to ATP and allow measurement of newly synthesized ATP using the luciferase/luciferin reaction. The light produced was measured using a photometer. Luminescence can be correlated with ADP concentration by using an ATP to ADP conversion curve. […] Meanwhile, better selectivity was shown on kinases with closer homology such as GCK/TNIK/PDK1.

[2] = target: T2, HPK1 (Homo sapiens (Human), UniProt Q92918); assay: as above; assay type: biochemical; conditions: recombinant protein, read-out: HPK1 inhibiting activity level (IC50)
Description: as §1

[3] = target: T3, PDK1 (Homo sapiens (Human), UniProt O15530); assay: as above; assay type: biochemical; conditions: recombinant protein, read-out: PDK1 inhibiting activity level (IC50)
Description: as §1

[4] = target: T4, TNIK (Homo sapiens (Human), UniProt Q9UKE5); assay: as above; assay type: biochemical; conditions: recombinant protein, read-out: TNIK inhibiting activity level (IC50)
Description: as §1
Target sequence in this assay (Q9UKE5 whole entry, species assumed): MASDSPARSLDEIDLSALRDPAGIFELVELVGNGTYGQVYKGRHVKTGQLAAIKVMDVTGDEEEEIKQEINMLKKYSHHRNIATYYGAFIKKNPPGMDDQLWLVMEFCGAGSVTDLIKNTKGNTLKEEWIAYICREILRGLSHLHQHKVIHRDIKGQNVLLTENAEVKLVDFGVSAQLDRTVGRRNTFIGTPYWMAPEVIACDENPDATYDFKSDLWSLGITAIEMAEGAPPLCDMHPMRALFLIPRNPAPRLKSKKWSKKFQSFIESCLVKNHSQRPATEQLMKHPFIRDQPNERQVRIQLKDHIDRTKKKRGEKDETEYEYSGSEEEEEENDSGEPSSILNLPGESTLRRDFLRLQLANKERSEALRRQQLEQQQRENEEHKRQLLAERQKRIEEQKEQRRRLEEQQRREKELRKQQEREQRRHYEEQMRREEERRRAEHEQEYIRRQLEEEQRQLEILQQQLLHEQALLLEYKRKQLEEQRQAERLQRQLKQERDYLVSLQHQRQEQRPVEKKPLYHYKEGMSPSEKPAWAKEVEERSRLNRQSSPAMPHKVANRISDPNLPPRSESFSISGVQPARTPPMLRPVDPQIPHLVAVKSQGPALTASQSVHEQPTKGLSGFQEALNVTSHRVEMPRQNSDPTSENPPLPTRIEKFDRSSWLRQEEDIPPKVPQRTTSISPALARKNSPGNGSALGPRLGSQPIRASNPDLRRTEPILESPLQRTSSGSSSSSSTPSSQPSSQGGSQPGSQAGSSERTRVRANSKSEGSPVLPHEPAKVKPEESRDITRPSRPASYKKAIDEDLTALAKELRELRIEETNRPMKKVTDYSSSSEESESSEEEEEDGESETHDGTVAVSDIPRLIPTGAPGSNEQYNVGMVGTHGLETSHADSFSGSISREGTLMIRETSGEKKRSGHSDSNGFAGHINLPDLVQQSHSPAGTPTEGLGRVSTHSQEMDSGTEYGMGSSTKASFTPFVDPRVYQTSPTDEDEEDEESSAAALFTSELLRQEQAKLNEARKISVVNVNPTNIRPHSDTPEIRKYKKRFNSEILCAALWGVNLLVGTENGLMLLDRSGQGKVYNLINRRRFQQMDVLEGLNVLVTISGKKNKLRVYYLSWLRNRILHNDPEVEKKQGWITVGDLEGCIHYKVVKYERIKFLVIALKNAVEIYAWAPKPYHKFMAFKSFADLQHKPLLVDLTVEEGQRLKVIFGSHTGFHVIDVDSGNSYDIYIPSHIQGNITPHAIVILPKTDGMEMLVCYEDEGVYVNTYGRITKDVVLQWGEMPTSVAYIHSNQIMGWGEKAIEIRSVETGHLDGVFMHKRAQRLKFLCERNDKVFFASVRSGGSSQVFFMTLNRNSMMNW

[5] = target: T2, HPK1; assay: Inhibition of HPK1 kinase activity in vitro (ADP-Glo), compounds of Formula I-1; assay type: biochemical; conditions: MBP substrate
Description: The starting concentration for all tested compounds was 10 μM, and diluted in three-fold concentration gradient for a total of 10 concentration points in duplicate.
Before the experiment, 50 μM DTT and the enzymatic reaction system buffer were prepared.
The compound dilution was transferred into 384-well plate by using a pipette, afterwards, the 384-well plate was sealed and centrifuged at 1000 g for 1 min. 2-fold concentration of HPK1 solution was prepared in the kinase buffer, and then 2.5 μL of the prepared 2-fold concentration of HPK1 solution was added into the 384 wells, centrifuged at 1000 g for 30 s, and incubated for 10 min at room temperature. A mixture of 2-fold concentration of MBP and ATP was prepare in the kinase buffer, and […] of prepared mixture of 2-fold concentration of MBP and ATP was added into the above reaction system for the reaction, centrifuged at 1000 g for 30 s, and then incubated at room temperature for 1 h, 5 μL of ADP-Glo reagent was added into the reaction system, and incubated at room temperature for 40 min. 10 μL of kinase detection reagent was added and incubated at room temperature for 40 min.
In the above formula, cmpd refers to the tested compound, PC refers to the positive control, and VC refers to the negative control.

[6] = Oral maximum tolerated dose / oral acute toxicity test in mice; assay type: in vivo; conditions: for Death, Female mice / Death, Male mice: P.O.; for MTD: mouse, in vivo, po, mice, single dose
Excerpt: The inventors tested representative compounds for oral maximum tolerated dose in mice.

[7] = system: Feline Infectious Peritonitis; assay: Animal clinical trial in cats with Feline Infectious Peritonitis; assay type: in vivo; conditions: 20 days; for ALB/GLB, After treatment / Feline serum amyloid A (fSAA, mg/L), After treatment: 1.5 mg/kg twice a day; for body weight (kg), After treatment: injection 1.5 mg/kg twice a day
Excerpt: Therefore, the inventors hypothesized that HPK1 inhibitors might have therapeutic effects on Feline Infectious Peritonitis. To validate this hypothesis, the inventors conducted an animal clinical trial. Three animals were included in the experiment, all of them suffered from Feline Infectious Peritonitis, aged between 5-12 months, one was female and the other two were male (Table 4).

[8] = target: T2, HPK1; assay: Inhibition of HPK1 kinase activity in vitro (ADP-Glo), compounds of Formula I-2; assay type: biochemical; conditions: ADP-Glo; read-out: Activity/IC50, nM HPK1
Description: The starting concentration for all tested compounds was 10 μM, and diluted in three-fold concentration gradient for a total of 10 concentration points in duplicate. Before the experiment, 50 μM DTT and the enzymatic reaction system buffer were prepared. […] A mixture of 2-fold concentration of MBP and ATP was prepare in the kinase buffer, and 2.5 μL of prepared mixture of 2-fold concentration of MBP and ATP was added into the above reaction system for the reaction, centrifuged at 1000 g for 30 s, and then incubated at room temperature for 1 h. 5 μL of ADP-Glo reagent was added into the reaction system, and incubated at room temperature for 40 min. 10 μL of kinase detection reagent was added and incubated at room temperature for 40 min. […] In the above formula, empd refers to the tested compound, PC refers to the positive control, and VC refers to the negative control.

[9] = target: T1, GCK; assay: Inhibition of GCK kinase activity in vitro (ADP-Glo); assay type: biochemical; conditions: ADP-Glo; read-out: Activity/IC50, nM GCK
Description: (§2) The starting concentration for all tested compounds was 10 μM, and diluted in three-fold concentration gradient for a total of 10 concentration points in duplicate. […] A mixture of 2-fold concentration of MBP and ATP was prepare in the kinase buffer, and 2.5 μL of prepared mixture of 2-fold concentration of MBP and ATP was added into the above reaction system for the reaction, centrifuged at 1000 g for 30 s, and then incubated at room temperature for 1 h. 5 μL of ADP-Glo reagent was added into the reaction system, and incubated at room temperature for 40 min. 10 μL of kinase detection reagent was added and incubated at room temperature for 40 min.

[10] = target: T4, TNIK; assay: Inhibition of TNIK kinase activity in vitro (ADP-Glo); assay type: biochemical; conditions: ADP-Glo; read-out: Activity/IC50, nM TNIK
Description: as §2
Target sequence in this assay (Q9UKE5 whole entry): as the sequence (Q9UKE5 whole entry, species assumed) above

[11] = target: T3, PDK1; assay: Inhibition of PDK1 kinase activity in vitro (ADP-Glo); assay type: biochemical; conditions: ADP-Glo; read-out: Activity/IC50, nM PDK1
Description: as §2

T2 sequence (Q92918 whole entry): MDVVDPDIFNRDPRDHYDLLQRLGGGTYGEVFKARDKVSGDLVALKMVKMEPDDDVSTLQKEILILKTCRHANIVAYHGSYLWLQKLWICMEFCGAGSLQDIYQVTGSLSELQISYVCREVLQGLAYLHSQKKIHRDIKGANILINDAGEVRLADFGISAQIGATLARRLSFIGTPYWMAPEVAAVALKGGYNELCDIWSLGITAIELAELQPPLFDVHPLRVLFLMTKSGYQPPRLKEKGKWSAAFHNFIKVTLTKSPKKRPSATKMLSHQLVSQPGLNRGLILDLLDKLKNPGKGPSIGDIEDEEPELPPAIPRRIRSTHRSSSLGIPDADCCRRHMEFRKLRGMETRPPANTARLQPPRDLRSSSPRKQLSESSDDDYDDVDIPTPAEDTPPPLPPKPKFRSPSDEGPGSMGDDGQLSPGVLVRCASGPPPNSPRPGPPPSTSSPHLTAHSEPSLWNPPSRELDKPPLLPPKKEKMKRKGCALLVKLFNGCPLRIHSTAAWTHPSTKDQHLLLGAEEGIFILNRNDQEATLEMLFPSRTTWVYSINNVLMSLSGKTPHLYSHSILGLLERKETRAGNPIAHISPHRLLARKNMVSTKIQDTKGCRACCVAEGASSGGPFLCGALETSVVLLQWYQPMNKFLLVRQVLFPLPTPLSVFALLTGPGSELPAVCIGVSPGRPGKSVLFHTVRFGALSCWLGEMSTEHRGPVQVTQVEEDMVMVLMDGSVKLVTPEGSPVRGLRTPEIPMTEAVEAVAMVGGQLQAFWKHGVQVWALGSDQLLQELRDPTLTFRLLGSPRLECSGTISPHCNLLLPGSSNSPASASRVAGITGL
T3 sequence (O15530 whole entry): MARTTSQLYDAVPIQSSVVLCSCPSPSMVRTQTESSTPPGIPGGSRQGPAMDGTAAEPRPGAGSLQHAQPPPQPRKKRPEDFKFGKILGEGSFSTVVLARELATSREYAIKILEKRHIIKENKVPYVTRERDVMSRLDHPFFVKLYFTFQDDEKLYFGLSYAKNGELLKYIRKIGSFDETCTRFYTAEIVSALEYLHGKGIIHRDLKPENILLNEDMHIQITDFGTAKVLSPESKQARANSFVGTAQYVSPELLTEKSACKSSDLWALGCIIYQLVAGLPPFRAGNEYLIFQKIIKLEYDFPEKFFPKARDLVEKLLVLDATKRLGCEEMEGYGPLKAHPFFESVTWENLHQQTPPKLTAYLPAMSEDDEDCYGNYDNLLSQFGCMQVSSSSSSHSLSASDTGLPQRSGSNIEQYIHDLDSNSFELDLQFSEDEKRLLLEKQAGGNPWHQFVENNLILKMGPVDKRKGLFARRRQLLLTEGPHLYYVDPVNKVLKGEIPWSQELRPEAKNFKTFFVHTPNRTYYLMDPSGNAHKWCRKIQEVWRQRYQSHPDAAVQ
T1 sequence (Q12851 whole entry): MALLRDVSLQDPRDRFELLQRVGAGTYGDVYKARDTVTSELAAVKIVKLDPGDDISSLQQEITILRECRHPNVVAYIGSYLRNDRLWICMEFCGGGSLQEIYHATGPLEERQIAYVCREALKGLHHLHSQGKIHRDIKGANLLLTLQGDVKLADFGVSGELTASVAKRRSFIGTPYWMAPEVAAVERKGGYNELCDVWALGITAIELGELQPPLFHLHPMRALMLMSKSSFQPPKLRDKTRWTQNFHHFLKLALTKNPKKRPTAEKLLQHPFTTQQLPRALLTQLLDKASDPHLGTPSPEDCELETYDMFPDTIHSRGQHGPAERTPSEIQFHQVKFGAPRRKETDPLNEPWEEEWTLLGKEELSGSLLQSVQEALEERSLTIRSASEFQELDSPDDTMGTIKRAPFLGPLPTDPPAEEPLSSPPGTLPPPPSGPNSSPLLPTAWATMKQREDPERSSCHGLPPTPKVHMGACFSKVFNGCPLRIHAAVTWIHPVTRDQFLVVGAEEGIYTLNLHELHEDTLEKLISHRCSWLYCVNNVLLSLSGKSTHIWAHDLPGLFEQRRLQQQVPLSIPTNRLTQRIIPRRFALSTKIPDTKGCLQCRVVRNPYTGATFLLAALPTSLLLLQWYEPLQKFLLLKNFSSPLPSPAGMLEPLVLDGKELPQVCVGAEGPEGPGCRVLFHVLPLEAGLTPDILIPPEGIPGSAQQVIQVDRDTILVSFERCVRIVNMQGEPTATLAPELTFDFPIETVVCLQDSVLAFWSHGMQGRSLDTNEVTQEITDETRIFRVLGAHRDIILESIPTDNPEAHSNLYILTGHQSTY

| Molecule | IC50 [1] [nM] | IC50 [2] [nM] | IC50 [3] [nM] | IC50 [4] [nM] | IC50 [5] [nM] | further results |
| --- | --- | --- | --- | --- | --- | --- |
| Cn1cccc1-c1cc2cc(NC(=O)C3C[C@@H]3F)ncc2c(N)c1F (some centres unmarked) [Compound C6] | 10 to 100 | ≤ 10 | > 1000 | 10 to 100 | – | – |
| Cn1cccc1-c1cc2cc(NC(=O)C3C[C@H]3F)ncc2c(N)c1F (some centres unmarked) [Compound C5] | ≤ 10 | ≤ 10 | > 1000 | 10 to 100 | – | – |
| CN1CCN(c2ccc(Nc3ncc4cccc(OC5CCC(O)CC5)c4n3)nc2)CC1 (centres unmarked) [Example 7, 4-((2-((5-(4-methylpiperazin-1-yl)pyridin-2-yl)amino)quinazolin-8-yl)oxo)cyclohexan-1-ol] | – | – | – | – | < 300 | – |
| CN1CCN(c2ccc(Nc3ncc4cccc(O[C@H]5CC[C@H](O)CC5)c4n3)cc2)CC1 [Compound C3] | 10 to 100 | 10 to 100 | > 1000 | 10 to 100 | – | Death, Female mice ([6]; 225 mg/kg): 0/5; Death, Male mice ([6]; 225 mg/kg): 0/5; Death, Female mice ([6]; 337.5 mg/kg): 2/5; Death, Male mice ([6]; 337.5 mg/kg): 1/5; Death, Female mice ([6]; 506.3 mg/kg): 2/5; Death, Male mice ([6]; 506.3 mg/kg): 3/5; Death, Female mice ([6]; 759.4 mg/kg): 5/5; Death, Male mice ([6]; 759.4 mg/kg): 3/5; Death, Female mice ([6]; 1139.1 mg/kg): 5/5; Death, Male mice ([6]; 1139.1 mg/kg): 5/5; MTD [6]: 225 mg/kg |
| CN1CCN(c2ccc(Nc3ncc4cccc(O[C@H]5CC[C@@H](O)CC5)c4n3)cc2)CC1 [Compound C4] | 10 to 100 | 10 to 100 | > 1000 | 10 to 100 | – | – |
| COCCOc1cccc2cnc(Nc3ccc(N4CCN(C)CC4)cc3)nc12 [Example 5, 8-(2-methoxyethoxy)-N-(4-(4-methylpiperazin-1-yl)phenyl)quinazolin-2-amine] | – | – | – | – | < 200 | – |
| CN1CCC(NC(=O)c2ccc(Nc3ncc4cccc(OC5CCC(O)CC5)c4n3)cc2)CC1 (centres unmarked) [Example 8, 4-((8-((4-hydroxycyclohexyl)oxo)quinazolin-2-yl)amino)-N-(1-methylpiperidin-4-yl)benzamide] | – | – | – | – | < 50 | – |
| CN1CCC(n2cc(Nc3ncc4cccc(O[C@H]5CC[C@H](N)CC5)c4n3)cn2)CC1 [Compound C1] | 10 to 100 | ≤ 10 | 100 to 1000 | 100 to 1000 | – | Death, Female mice ([6]; 225 mg/kg): 0/5; Death, Male mice ([6]; 225 mg/kg): 0/5; Death, Female mice ([6]; 337.5 mg/kg): 0/5; Death, Male mice ([6]; 337.5 mg/kg): 0/5; Death, Female mice ([6]; 506.3 mg/kg): 1/5; Death, Male mice ([6]; 506.3 mg/kg): 2/5; Death, Female mice ([6]; 759.4 mg/kg): 4/5; Death, Male mice ([6]; 759.4 mg/kg): 4/5; Death, Female mice ([6]; 1139.1 mg/kg): 5/5; Death, Male mice ([6]; 1139.1 mg/kg): 5/5; MTD [6]: 338 mg/kg; ALB/GLB, After treatment ([7]; Animal No. 1, before treatment 0.5): 0.7; body weight (kg), After treatment ([7]; Animal No. 1, before treatment 1.5): 2.15 kg; ALB/GLB, After treatment ([7]; Animal No. 2, before treatment 0.35): 0.47; Feline serum amyloid A (fSAA, mg/L), After treatment ([7]; Animal No. 2, before treatment 70.47): 15.14 mg/L; body weight (kg), After treatment ([7]; Animal No. 2, before treatment 2.31): 2.81 kg; ALB/GLB, After treatment ([7]; Animal No. 3, before treatment 0.4): 0.5; Feline serum amyloid A (fSAA, mg/L), After treatment ([7]; Animal No. 3, before treatment 104.88): 17.97 mg/L; body weight (kg), After treatment ([7]; Animal No. 3, before treatment 2.9): 3.2 kg |
| NS(=O)(=O)c1ccc(Nc2ncc3cccc(OC4CCC(O)C4)c3n2)cc1 (centres unmarked) [Example 9, 4-((8-((3-hydroxycyclopentyl)oxo)quinazolin-2-yl)amino)benzenesulfonamide] | – | – | – | – | < 300 | – |
| 4-((2-((4-((2-(dimethylamino)ethyl)(methyl)amino)phenyl)amino)quinazolin-8-yl)oxo)cyclohexan-1-ol [Example 2] | – | – | – | – | < 50 | – |
| CN1CCN(c2ccc(Nc3ncc4cccc(OC5CCC(O)CC5)c4n3)cc2)CC1 (centres unmarked) [Example 4] | – | – | – | – | < 50 | – |
| CN1CCN(c2ccc(Nc3ncc4cccc(OC5CCC(O)C5)c4n3)cc2)CC1 (centres unmarked) [Example 6] | – | – | – | – | < 100 | – |
| CN1CCC(n2cc(Nc3ncc4cccc(OC5CCC(O)CC5)c4n3)cn2)CC1 (centres unmarked) [Example 3, 4-((2-((1-(1-methylpiperidin-4-yl)-1H-pyrazol-4-yl)amino)quinazolin-8-yl)oxo)cyclohexan-1-ol] | – | – | – | – | < 50 | – |
| CN1CCC(n2cc(Nc3ncc4cccc(O[C@H]5CC[C@@H](N)CC5)c4n3)cn2)CC1 [Compound C2] | 10 to 100 | ≤ 10 | 100 to 1000 | 100 to 1000 | – | – |
| CN1CCC(n2cc(Nc3ncc4cccc(O[C@H]5CC[C@@H](N)CC5)c4n3)cn2)CC1 [Example 1, 8-(((1s,4s)-4-aminocyclohexyl)oxo)-N-(1-(1-methylpiperidin-4-yl)-1H-pyrazol-4-yl)quinazolin-2-amine] | – | – | – | – | < 50 | – |
| Cn1cccc1-c1cc2cc(NC(=O)[C@@H]3C[C@@H]3F)ncc2c(N)c1F [DD02001A cis, (1S,2S)—N-(8-amino-7-fluoro-6-(1-methyl-1H-pyrrole-2-yl)isoquinolin-3-yl)-2-fluorocyclopropane-1-carboxamide] | – | – | – | – | – | IC50 [8]: < 10 nM; IC50 [9]: > 10 nM; IC50 [10]: > 10 nM; IC50 [11]: > 7000 nM |
| NS(=O)(=O)c1cccc(Nc2ncc3cccc(OC4CCC(O)CC4)c3n2)c1 (centres unmarked) [Example 10, 3-((8-((4-hydroxycyclohexyl)oxo)quinazolin-2-yl)amino)benzenesulfonamide] | – | – | – | – | > 300 | – |
